This is an account of results in patent US20150017156A1, “ESX-MEDIATED TRANSCRIPTION MODULATORS AND RELATED METHODS” (THE OHIO STATE UNIVERSITY, priority 2011, published 2015).

Read-outs that look alike come from different tables or passages of the source.

The test system of data set [1] is Her2 expression in SKBR3 cells. Conditions: cited from earlier work.
Data set [2] has as its system SKBR3 Her2-positive breast carcinoma cells. As to conditions: cited from earlier work.
The test system of another data set is CAL27 HNSCC cells. The experiment in a line: Xenograft model of HNSCC, CAL27 in athymic nude mice.
Data set [3] relates to CAL27 cells. The experiment in a line: Cell proliferation (CCK-8 reagent), CAL27. The format is cell-based. As to conditions: Homo sapiens, read-out: IC50 for cell proliferation. As to the method: (§1) A. EGFR and Her2 levels. […] Cell lysates were prepared and determined for EGFR and Her2 protein levels by immunoblot analyses. B. Cell proliferation. […] (ESXm) for 24 hours. Cell proliferation was assessed using the CCK-8 reagent to detect metabolic active cells. Dose-response curves and IC50 values were generated using GraphPad Prism 4.0 (GraphPad Software, La Jolla, Calif.). […] C. Cell invasion. Cell invasion was determined as described from the cell invasion assay kit (Chemicon International, Temecula, Calif.). […] An aliquot (1×10^5 cells) of the prepared cell suspension was added to the top chamber and 10% FBS was added to the bottom chamber. After 24 hours, non-invading cells were gently removed from the interior of the inserts with a cotton-tipped swab. Invasive cells were stained and visualized. A representative field for each experimental condition is presented. D. Cell migration. Cell migration was determined using the wound healing assay. Cells were seeded and allowed to grow until confluence. […] A representative field for each experimental condition at 0 hour and 24 hours is presented.
(§2) Cell proliferation was assessed using the CCK-8 reagent to detect metabolic active cells. Dose-response curves and IC50 values were generated using GraphPad Prism 4.0 (GraphPad Software, La Jolla, Calif.).

Data set [4] concerns SCC25 cells. The experiment in a line: Cell proliferation (CCK-8 reagent), SCC25. As to conditions: Homo sapiens, read-out: IC50 for cell proliferation. The data set is classed as cell-based. As to the method: as §1, §2
The test system of data set [5] is SCC25 cells. As to conditions: 15 μmol/L. As to the method:
(§3) A. EGFR and Her2 levels. […] Cell lysates were prepared and determined for EGFR and Her2 protein levels by immunoblot analyses. B. Cell proliferation. […] Cell proliferation was assessed using the CCK-8 reagent to detect metabolic active cells. Dose-response curves and IC50 values were generated using GraphPad Prism 4.0 (GraphPad Software, La Jolla, Calif.). […] C. Cell invasion. Cell invasion was determined as described from the cell invasion assay kit (Chemicon International, Temecula, Calif.). […] An aliquot (1×10^5 cells) of the prepared cell suspension was added to the top chamber and 10% FBS was added to the bottom chamber. After 24 hours, non-invading cells were gently removed from the interior of the inserts with a cotton-tipped swab. Invasive cells were stained and visualized. A representative field for each experimental condition is presented. D. Cell migration. Cell migration was determined using the wound healing assay. Cells were seeded and allowed to grow until confluence. […] A representative field for each experimental condition at 0 hour and 24 hours is presented.

Data set [6] relates to CAL27 cells. Conditions: 12.5 μmol/L. On the procedure:
as §3

Data set [7] relates to EGFR and Her2 levels in SCC25 cells. Conditions: 24 hours, immunoblot. On the procedure: as §3
The test system of data set [8] is EGFR and Her2 levels in CAL27 cells. As to conditions: 24 hours, immunoblot. As to the method: as §3
Data set [9] is described as follows: Precipitation in cell culture media. The format is physicochemical. Conditions: higher concentrations.
Data set [10] has as its system phosphorylated erbB2 levels in SkBr3 cells.
Method: ErbB2 and p-erbB2 ELISA: ELISA assays were performed based on those published elsewhere.[4] […] After 24 hours, media was removed carefully and cells were fixed and permeabilized with cold (−20° C.) methanol. The cells were then washed twice with TBST, blocked for 2 hours at room temperature with superblock (TBST solution from Pierce), incubated with the primary antibody overnight at 4° C. (as a 1:500 solution in superblock). Cells were then washed twice more with TBST and incubate with secondary antibody for 2 hours at room temperature (as a 1:1000 solution in superblock). After being washed 3 times with TBST, Slow TMB (Pierce) was added to measure antibody levels in accordance with the manufacturer's instructions and the absorbance at 370 nm was measured. The cells were washed 3 more times with TBST and total protein levels were measured at 560 nm using BCA reagent (Pierce). […] The resulting ratios were then normalized to cells treated with DMSO.

From the text for SkBr3 (erbB2+) cells: Isobolograms were generated by computing dose fractions directly from the IC50s. Dose fraction is defined as the dose of one component in a combination required to exert a given effect (usually IC50, as in this case) divided by the dose of that component in isolation required to exert the same effect. Thus each combination reported has two dose fraction measurements (eg. dose fraction it and dose fraction lapatinib) that define the combinations x/y coordinates on the isobologram.
Dose fraction of A for combination AB=IC50(A in AB)/IC50(A in isolation)
Dose fraction of B for combination AB=IC50(B in AB)/IC50(B in isolation)
The sum of these x/y coordinates are the combination index. By definition, the CI for either agent in isolation is 1. For the null hypothesis (in which both agents act as though they are equivalent doses of the same agent) the CI will be 1. For combinations where the CI<1, synergy is present.
CI(combination index)=dose fraction A+dose fraction B.
For the experiments used to generate dose-effect curves for the isobolograms and selectivity experiments, cells were plated at 3000 cells per well in 96 well plates. […] The day after the final treatment, cell viability was measured using WST-1 reagent (Roche) in accordance with the manufacturer's instructions. […]

Consider `Cc1ccc(S(=O)(=O)n2ccc3c(OCC(O)CN(CCCCCN)C(=O)N4CCC(C5CCN(C(=O)C67CC8CC(CC(C8)C6)C7)CC5)CC4)cccc32)cc1` (stereo not shown) [Wrenchnolol, wrenchnolol, reference compound], for which the Her2 expression result in data set [1] was “decreased Her2 expression”. Also, the cell proliferation entry in data set [2] is on record as “inhibited cell proliferation”.
With `CN(C)C/C=C/C(=O)Nc1cc2c(Nc3ccc(F)c(Cl)c3)ncnc2cc1O[C@H]1CCOC1` [afatinib], in the data set on CAL27 HNSCC cells, the mean tumor volume worked out at 43 mm^3 and the “mean tumor volume, single-agent afatinib arm compared to the combination treatment arm” value was determined as 2.1 fold.
On to `CC(C)C[C@]1(CCO)C[C@H](CN=[N+]=[N-])ON1Cc1ccc(-c2ccccc2)cc1` [biphenyl isoxazolidine], for which the IC50 with CAL27 cells [3] (CAL-27, 24 h) is 46.8 µM; in the data set on SCC25 cells [4] (SCC-25, 24 h), 50.3 µM. The Her2 expression result in data set [1] is reported as “decreased Her2 expression”. Also, the Cell invasion result in the data set on SCC25 cells [5] and with CAL27 cells [6] was “dramatically suppressed” throughout. For the same compound, the Cell migration entry with SCC25 cells [5] and with CAL27 cells [6] was “dramatically suppressed” throughout. In addition, the “EGFR and Her2 levels” value in [7] and in data set [8] was “dose-dependent decrease” in each case. Also, the cell proliferation result in [2] is “inhibited cell proliferation”.
As for `C#Cc1cccc(Nc2ncnc3cc(OCCOC)c(OCCOC)cc23)c1` [erlotinib], the “precipitation out of cell culture media” value in [9] is reported as “precipitate out of cell culture media at higher concentrations”.
With `CS(=O)(=O)CCNCc1ccc(-c2ccc3ncnc(Nc4ccc(OCc5cccc(F)c5)c(Cl)c4)c3c2)o1` [lapatinib, reference compound], the “effects on erbB2 and phosphorylated erbB2 levels as single agents” value in data set [10] is on record as “moderate effects”. For the same compound, the IC50 in the data set on CAL27 cells [3] (CAL-27, CAL27 cells, 24 hours of treatment, single agent) stood at 11.8 µM; in the data set with SCC25 cells [4] (SCC-25, SCC25 cells, 24 hours of treatment, single agent), 11.9 µM; with SkBr3 (erbB2+) cells it was 0.048 ± 0.017 µM.
